According to the supplement of paper PMC9103864:

Assays:
[1] = system: BMSC (primary human bone marrow mesenchymal stromal cells); test: absolute EC50 for viability; higher = less sensitive
[2] = system: BMSC (primary human bone marrow mesenchymal stromal cells); test: drug sensitivity score (DSS); higher = more sensitive

Compound | absolute EC50 for viability [1] [µM] | drug sensitivity score [2]
CS(=O)(=O)N1CCN(Cc2cc3nc(-c4cccc5[nH]ncc45)nc(N4CCOCC4)c3s2)CC1 [Pictilisib] | 1.28 | 11
CNC(=O)c1ccccc1Sc1ccc2c(/C=C/c3ccccn3)n[nH]c2c1 [Axitinib] | > 10 | 7.9
C[C@@H]1CN(Cc2ccc(F)cc2)[C@@H](C)CN1C(=O)c1cc2c(C(=O)C(=O)N(C)C)cn(C)c2cc1Cl [Talmapimod] | > 10 | 0
O=C(c1ccc(C(=O)N2CCC(N3CCCC3)CC2)c(Nc2ccccc2)c1)N1CCC(N2CCCC2)CC1 [UNC1215] | > 10 | 0
COc1cc([C@@H]2c3cc4c(cc3[C@@H](O[C@@H]3O[C@@H]5CO[C@@H](c6cccs6)O[C@H]5[C@H](O)[C@H]3O)[C@H]3COC(=O)[C@H]23)OCO4)cc(OC)c1O [Teniposide] | > 10 | 0
Cc1c(-c2c(-c3ccc(F)o3)sc3ncnc(O[C@H](Cc4ccccc4OCc4ccnn4CC(F)(F)F)C(=O)O)c23)ccc(OCCN2CCN(C)CC2)c1Cl | > 1 | 0
CC[C@@H]1C(=O)N(C)c2cnc(Nc3ccc(C(=O)NC4CCN(C)CC4)cc3OC)nc2N1C1CCCC1 [BI 2536] | > 1 | 1.9
CC(C)[C@H](C(=O)Nc1ccc(C(=O)NO)cc1)c1ccccc1 [AR-42] | 1.94 | 7.5
N#Cc1ccnc(N2C(=O)CC[C@H]2C(=O)N(c2cncc(F)c2)[C@H](C(=O)NC2CC(F)(F)C2)c2ccccc2Cl)c1 [Ivosidenib] | > 10 | 0
Cc1noc2c1-c1ccccc1C(c1ccc(Cl)cc1)=N[C@H]2CC(N)=O [CPI-0610] | > 10 | 0
Cc1cccc(-c2[nH]c(CNc3ccccc3F)nc2-c2ccc3ncnn3c2)n1 [TEW-7197] | > 2.5 | 2.1
CC(C)N(CCCNC(=O)Nc1ccc(C(C)(C)C)cc1)C[C@H]1O[C@@H](n2cc(Br)c3c(N)ncnc32)[C@H](O)[C@@H]1O [SGC0946] | > 10 | 2.1
c1ccc2n[se]nc2c1 [BCI] | 2.55 | 14.9
Cc1cc2c(C(=O)NC[C@H](C)c3ccccc3)c(O)c(O)cc2c(O)c1-c1c(C)cc2c(C(=O)NC[C@H](C)c3ccccc3)c(O)c(O)cc2c1O [Sabutoclax] | 7.71 | 5.6
N#Cc1ccc2[nH]c(O)c(-c3ccc(CN4CCOCC4)cn3)c2c1 [AZD-1080] | > 10 | 0
NC(=O)c1cnc2[nH]ccc2c1NC1C2CC3CC1CC(O)(C3)C2 (stereo unspecified) [Peficitinb] | > 2.5 | 1.7
Cc1c(F)cc(C(=O)NC2CC2)cc1-c1ccc(C(=O)NCC(C)(C)C)cn1 [Losmapimod] | > 10 | 0
C[C@@H](Oc1ccc2[nH]nc(/C=C/c3cnn(CCO)c3)c2c1)c1c(Cl)cncc1Cl | > 1 | 3.6
CN(C)c1cc2c(cc1Sc1nc3c(N)nccc3n1CCNCC(C)(C)C)OCO2 [CUDC-305] | 1.15 | 8.8
COc1cc2c(Nc3ccc(Cl)c(Cl)c3F)ncnc2cc1OC[C@@H]1C[C@@H]2CN(C)C[C@@H]2C1 [Tesevatinib] | > 1 | 4.1

Compound | absolute EC50 for viability [1] [µM] | drug sensitivity score [2]
C[C@@H](Oc1cc(-c2cnn(C3CCNCC3)c2)cnc1N)c1c(Cl)ccc(F)c1Cl [Crizotinib] | > 1 | 0.2
O=C(O)c1ccc2c(c1)nc(Nc1cccc(Cl)c1)c1ccncc12 [Silmitasertib] | > 10 | 2.3
CC(=O)c1c(C)c2cnc(Nc3ccc(N4CCNCC4)cn3)nc2n(C2CCCC2)c1=O [Palbociclib] | > 10 | 2.3
Cn1nnc2c(C(N)=O)ncn2c1=O [Temozolomide] | > 100 | 0
Cc1[nH]c2ccccc2c1CCNCc1ccc(/C=C/C(=O)NO)cc1 [Panobinostat] | 0.123 | 10.2
CC1(C)C(C(=O)Nc2ccc(S(=O)(=O)c3ccc(NC(=O)C4C(C)(C)C4(C)C)cc3)cc2)C1(C)C [BRD7116] | > 10 | 0
CCC1(c2ccc(N)cc2)CCC(=O)NC1=O (stereo unspecified) [Aminoglutethimide] | > 10 | 0
CC(=O)OC[C@H]1O[C@@H]([S-])[C@H](OC(C)=O)[C@@H](OC(C)=O)[C@@H]1OC(C)=O.CCP(CC)CC.[Au+] [Auranofin] | 1.39 | 3.3
CO[C@H]1C[C@@H]2CC[C@@H](C)[C@@](O)(O2)C(=O)C(=O)N2CCCC[C@H]2C(=O)O[C@H]([C@H](C)C[C@@H]2CC[C@@H](O)[C@H](OC)C2)CC(=O)[C@H](C)/C=C(\C)[C@@H](O)[C@@H](OC)C(=O)[C@H](C)C[C@H](C)/C=C/C=C/C=C/1C [Sirolimus] | > 0.1 | 4.2
NC(=O)NO [Hydroxyurea] | > 1000 | -2.9
Cc1cc([C@@H](C)Nc2ccccc2C(=O)O)c2nc(N3CCOCC3)cc(=O)n2c1 [AZD-6482] | > 2.5 | 2.1
COc1cc2ncnc(Nc3ccc(F)c(Cl)c3)c2cc1NC(=O)/C=C/CN1CCCCC1 [Dacomitinib] | > 1 | 2.2
COC(=O)c1ccc2c(C(=Nc3ccc(N(C)C(=O)CN4CCN(C)CC4)cc3)c3ccccc3)c(O)[nH]c2c1 [Nintedanib] | 2.56 | 9.7
CNC(=O)c1cc(Oc2ccc(NC(=O)Nc3ccc(Cl)c(C(F)(F)F)c3)cc2)ccn1 [Sorafenib] | > 1 | 0
COc1cc(C(=O)O)ccc1NC(=O)[C@@H]1N[C@@H](CC(C)(C)C)[C@](C#N)(c2ccc(Cl)cc2F)[C@H]1c1cccc(Cl)c1F [Idasanutlin] | 0.576 | 13.3
N.N.[Cl][Pt][Cl] [Cisplatin] | 48.5 | 3.6
Nc1ncn([C@H]2C[C@H](O)[C@@H](CO)O2)c(=O)n1 [Decitabine] | > 10 | 0
CC[C@H](C)C(=O)O[C@H]1C[C@H](O)C=C2C=C[C@H](C)[C@H](CC[C@@H](O)C[C@@H](O)CC(=O)O)[C@H]21 [Pravastatin] | > 10 | 0
Nc1nccc(-c2c(-c3ccc(F)cc3)ncn2C2CCCCC2)n1 | > 10 | 0.3
COCCNCc1ccc(-c2cc3nccc(Oc4ccc(NC(=S)NC(=O)Cc5ccc(F)cc5)cc4F)c3s2)nc1 [Glesatinib] | > 2.5 | 5.1

Compound | absolute EC50 for viability [1] [µM] | drug sensitivity score [2]
CCCCNc1ncc(C(=O)NCc2ccc(-n3ccnc3)cc2)c(NC2CCC(O)CC2)n1 (stereo unspecified) [UNC2881] | > 2.5 | 0.1
CC(C)(C)Cn1c(N)nc2ccc(-c3[nH]c(C(C)(C)C)nc3-c3ccc(F)cc3)nc21 [Ralimetinib] | > 10 | 0.7
CCNC(=O)c1noc(-c2cc(C(C)C)c(O)cc2O)c1-c1ccc(CN2CCOCC2)cc1 [Luminespib] | 0.0152 | 16.8
Cc1cc(OCc2nnc(SC3CCCC3)n2-c2cccnc2)ccc1-c1ccc(S(C)(=O)=O)cc1 [NMS-873] | 5.4 | 4.1
CCNC(=O)C[C@@H]1N=C(c2ccc(Cl)cc2)c2cc(OC)ccc2-n2c(C)nnc21 [Molibresib] | > 10 | 3.3
Cc1ccc(NS(=O)(=O)c2cccc(C#N)c2)c2[nH]cc(C#N)c12 [E7820] | > 50 | 0
CC1(N)CCN(c2cnc(-c3cccc(Cl)c3Cl)c(N)n2)CC1 [NVP-SHP099] | > 10 | 0
O=C(Nc1cccc(Nc2ncc(Br)c(NCCc3cnc[nH]3)n2)c1)N1CCCC1 [BX-912] | 2.17 | 6.7
Nc1cc(C(F)(F)F)c(-c2cc(N3CCOCC3)nc(N3CCOCC3)n2)cn1 [Buparlisib] | 2.11 | 7.8
C=CC(=O)Nc1cc2c(Nc3ccc(F)c(Cl)c3)ncnc2cc1OCCCN1CCOCC1 [Canertinib] | > 10 | 3.7
CNC(=O)c1ccc2cc([C@@]3(O)CCn4cncc43)ccc2c1 [Orteronel] | > 10 | 0
C/C(=C\c1csc(C)n1)[C@@H]1C[C@@H]2O[C@]2(C)CCC[C@H](C)[C@H](O)[C@@H](C)C(=O)C(C)(C)[C@@H](O)CC(=O)N1 [Ixabepilone] | > 1 | 0.5
COc1cc2ncnc(Nc3ccc(F)c(Cl)c3)c2cc1OCCCN1CCOCC1 [Gefitinib] | > 10 | 3.4
CC[C@@H]1C(=O)N(C)c2cnc(Nc3ccc(C(=O)N[C@H]4CC[C@H](N5CCN(CC6CC6)CC5)CC4)cc3OC)nc2N1C(C)C [Volasertib] | > 1 | 1.5
COc1c(C)cnc(Cn2cnc3c(Cl)nc(N)nc32)c1C [BIIB021] | 0.449 | 12
Nc1ncn([C@@H]2O[C@H](CO)[C@@H](O)[C@H]2O)c(=O)n1 [Azacitidine] | > 10 | 2.3
CCN1CCN(c2ccc(Nc3cc(N(C)C(=O)Nc4c(Cl)c(OC)cc(OC)c4Cl)ncn3)cc2)CC1 [Infigratinib] | > 1 | 0
C[C@H]1CN(C2COC2)CCN1c1ccc(Nc2cc(-c3ccnc(N4CCn5c(cc6c5CC(C)(C)C6)C4=O)c3CO)cn(C)c2=O)nc1 [GDC-0853] | > 1 | 0
